The text below walks through data of PubChem BioAssay (NCI).

Several values for one entry are separate records, joined by “and”; a condition that tells them apart may be missing. Identical values can stand only once.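 Cultured in 96-well plates, cells were exposed to test compound for 48 hours across five concentrations. GI50 = concentration required for 50% inhibition of growth. Definition used: TGI = concentration required for complete inhibition of growth.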 *1 amine or outer side, *2 acyl side, *3 side chain or, on linkers, in order; H or OH if unused. Where a SMILES comes first, the peptide text is derived from it. [ ]: non-standard residue; d: D form. The star is where a group is joined. X11 = C/C=C/CC(C)C(O)[C@H](N[*:1])C(=O)[*:2]; Decanoyl = CCCCCCCCCC(=O)*; Leu(ol) = CC(C)C[C@H](N)CO; Iva = CC[C@](C)(N)C(=O)O; Aib = CC(C)(N)C(=O)O

The assay has as its system MDA-MB-468 breast. Description: growth of human tumour cells (NCI), 48 h.
Take `Clc1cccc(/C=N/Nc2nc(N/N=C/c3cccc(Cl)c3)nc(N3CCOCC3)n2)c1`: the GI50 is 1650 nM and the TGI is 4.28 µM.
The like results for `COc1ccc(/C=N/NC(=O)c2cccc3cc[nH]c23)cc1O` were, in that order, 3350 nM and more than 25.2 µM.
The corresponding values for `O=C(N/N=C/c1ccc[nH]1)c1[nH]c2ccc(Br)cc2c1-c1ccccc1` are 196 nM and 1.15 µM.
Take `O=C1c2cc3c(cc2-c2c1c1ccc(F)cc1c(=O)n2C[C@H](O)[C@@H](O)[C@H](O)CO)OCO3`: the GI50 was 27.4 nM and the TGI was determined as 0.0759 µM.
The like results for `C=C1C(=O)O[C@H]2[C@H]1CC/C(COC(=O)NCc1ccc(Cn3c(=O)sn(-c4ccc(OC)cc4)c3=O)cc1)=C\CC[C@@]1(C)O[C@@H]21` were, in that order, 1530 nM and 3.54 µM.
As to `C/C=C/CC(C)C(O)[C@H](NC(=O)[C@@H]1CCCN1C(=O)C(C)(C)NC(=O)CCCCCCCCC)C(=O)N[C@@](C)(CC)C(=O)N[C@@H](CCC(N)=O)C(=O)N[C@H](CCC(N)=O)C(=O)NC(C)(C)C(=O)NC(C)(C)C(=O)N[C@@H](CCC(N)=O)C(=O)N[C@H](CC(C)C)C(=O)N[C@H](CO)CC(C)C` (stereo partly drawn) (Decanoyl-[Aib]P[X11][Iva]Q[dQ][Aib][Aib]Q[dL][Leu(ol)]), the GI50 is 1790 nM and the TGI is 3.42 µM.
The like results for `CCN(Cc1ccc(F)cc1)c1cc(Cl)c(CO)c(Cl)c1` were, in that order, 1890 nM and 6.34 µM.
For the compound `COc1cccc(-c2nc(-c3ccc(NC(=O)OC(C)C)cc3)[nH]c2-c2ccnc(Br)c2)c1`, the GI50 was 2030 nM and the TGI amounted to 6.5 µM.
The corresponding values for `COc1cccc(C(=O)NC(c2ccc(C)cc2)c2cc(Cl)c3cccnc3c2O)c1` (centres undefined) are 397 nM and 2.72 µM.
Turning to `CCN(C(=O)N1CCN(c2cc3c(cc2F)c(=O)c(C(=O)O)cn3C2CC2)CC1)c1nc(-c2ccc(Cl)cc2)cs1`, the GI50 is 1490 nM and the TGI turned out to be 6.79 µM.
Take `Nc1n[nH]c2cc(F)c([C@@H]3Nc4ccc5[nH]ncc5c4[C@H]4C5CCC(C5)[C@@H]34)cc12` (some centres undefined): the GI50 was 150 nM and the TGI was found to be 1.9 µM.
For the compound `CCCCCCCCCCn1cc[n+](C)c1`, the GI50 is 481 nM.
Turning to `CCCCCCCCCCCCCCCC[N+](C)(C)Cc1ccccc1`, the GI50 was 328 nM and the TGI was 1.2 µM.
With `CC1(COc2ccc3c(c2)ncn3-c2ccc3cccc(N4CCC(N)CC4)c3n2)COC1`, the GI50 was 1340 nM and 2000 nM; the TGI is 2.94 µM and 4.95 µM.
In the case of `CCn1c(-c2nonc2N)nc2c(C#CC(C)(C)O)nc(OC[C@@H](N)c3ccccc3)cc21`, the GI50 was 4060 nM and the TGI worked out at 7.68 µM.
The like results for `Nc1c(C(=O)Nc2cccc(C(F)(F)F)c2)sc2nc3c(cc12)CCCCC3` were, in that order, 394 nM and 3.01 µM.
The like results for `O=C(CCCSc1nc(-c2ccccc2)cc(-c2ccccc2)n1)NO` were, in that order, 1490 nM and 4.69 µM.
Turning to `Nc1ccc(C2=NNC(=O)Cc3cc4c(cc32)OCCO4)cc1Cl`, the GI50 was 1580 nM and the TGI was found to be 15.9 µM.
The corresponding values for `O=C(/C(=C/c1ccc([N+](=O)[O-])cc1)SCc1ccccc1)c1ccc(Cl)cc1` are 2250 nM and 5.83 µM.
On to `CN1CC[C@@H](NC(=O)Nc2ccc(C#N)cc2)C[C@@H]1c1nc2ccccc2[nH]1`, for which the GI50 is 43300 nM and the TGI was more than 100 µM.
For the compound `Cc1nnc(NC(=O)c2nc(S(=O)(=O)Cc3ccc(F)cc3)ncc2Cl)s1`, the GI50 was 1200 nM and the TGI was found to be 3.28 µM.
Take `CCCOc1cc2ccccc2cc1C(=O)Nc1nc(N)c2c(ccc3nccc32)[nH]1`: the GI50 was 54.2 nM and the TGI was determined as 0.516 µM.
As for `COc1cc(-c2ccc3cc(OC)c(OC)c(OC)c3c2)cc(OC)c1OC`, the GI50 is 3300 nM and the TGI was more than 100 µM.
The corresponding values for `CCN1C(=O)N(c2ccccc2)C2NC(=S)N(/N=C/C=C/c3ccccc3OC)C21` (centres undefined) are 114 nM and 14.2 µM.
The corresponding values for `CC(C)[C@@H]1C=C2CC[C@H]3[C@](C)(CN)CCC[C@]3(C)[C@H]2CC1` are 13200 nM and 28.2 µM.
`Cc1cc(C)cc(NC2=C(Cl)C(=O)c3nc(C)ccc3C2=O)c1`: the GI50 is 1640 nM and the TGI is 3.2 µM.
Take `Nc1ccccc1SC(CC(=O)c1ccccc1)c1cccc([N+](=O)[O-])c1` (centres undefined): the GI50 is 15400 nM and the TGI was found to be 31.3 µM.
The like results for `CN(C)c1cc(NN=C(c2ccc(O)cc2)c2ccc(O)cc2)c([N+](=O)[O-])cc1[N+](=O)[O-]` were, in that order, 10100 nM and 22.6 µM.
The like results for `Nc1cc(NN=C(c2ccc(O)cc2)c2ccc(O)cc2)c([N+](=O)[O-])cc1[N+](=O)[O-]` were, in that order, 2190 nM and 4.82 µM.
The like results for `COc1ccc2nc3cc(Cl)ccc3c(NCCNCC(C)O)c2c1` (centres undefined) were, in that order, 1550 nM and 3.36 µM.
In the case of `COC[C@H]1Cn2cc(-c3nc(Nc4ccnn4C)ncc3C)nc2C(=O)N1Cc1ccc(F)c(F)c1`, the GI50 is 26300 nM and the TGI was more than 100 µM.
With `COc1cc(/C(C#N)=C/c2nc3c(N4CCOCC4)nc(Cl)nc3n2C)cc(OC)c1OC`, the GI50 was less than 13.1 nM.
Consider `c1ccc(Sc2ncnc3ccccc23)cc1`, for which the GI50 was 2980 nM and the TGI is 12.3 µM.
The like results for `CN1CCN(Cc2ccc(NC(=O)c3cncc(C#Cc4cnc5ccc(N6CCSCC6)nn45)c3)cc2C(F)(F)F)CC1` were, in that order, 146 nM and 0.302 µM.
Turning to `COc1ccc(CCN=C2NC(=O)/C(=C/c3ccc4ncccc4c3)S2)cc1`, the GI50 is more than 18700 nM and the TGI was more than 25 µM.
The corresponding values for `COc1ccc(-c2cn[nH]c2-c2cc(OC)c(OC)c(OC)c2)cc1` are 42.2 nM and 30.3 µM.
The like results for `COc1ccc(CN2C(=O)/C(=C\c3cc(OC)c(OC)c(OC)c3)c3ccccc32)cc1` were, in that order, 1940 nM and 5.61 µM.
`Nc1n[nH]c2cccc(C#Cc3cccc(C(=O)Nc4ccc(CN5CCOCC5)c(C(F)(F)F)c4)c3)c12`: the GI50 was 2870 nM and the TGI was found to be 9.72 µM.
`O=C1NC(=NC(CO)Cc2ccccc2)S/C1=C\c1ccc2ncccc2c1` (centres undefined): the GI50 is 7070 nM and 2140 nM; the TGI was > 25 µM and 13.7 µM.
As to `COc1ccc([C@H]2[C@H](O)C(=O)N2c2cc(OC)c(OC)c(OC)c2)cc1O`, the GI50 was less than 10 nM and the TGI is more than 100 µM.
The like results for `COCCOc1ccc(-c2nc3ccc(-c4nc5ccc(N6CCN(C)CC6)cc5[nH]4)cc3[nH]2)cc1` were, in that order, 1420 nM and 4.16 µM.
The corresponding values for `Cc1csc(-c2nnc(Nc3ccc(Oc4ncccc4-c4ccnc(N)n4)cc3)c3ccccc23)c1` are less than 11.5 nM and more than 100 µM.
The corresponding values for `O=C(Nc1ccc(Oc2ccc(Nc3nc4ccccc4s3)cc2)cc1)Nc1ccc(Cl)c(C(F)(F)F)c1` are 405 nM and 2.2 µM.
